Laboratory results from patent US20110059909A1, “METHODS FOR TREATING INFLAMMATORY DISORDERS” (priority 2004, published 2011).

How the values were obtained:
[1] = tested on: primary cultured rat neocortical explants; conditions: cited from earlier work
[2] = tested on: mice; conditions: cited from earlier work
[3] = tested on: primary cultured rat neocortical explants; conditions: cited from earlier work; remark: listed apart in the source
[4] = target: T1, LacCer synthase (GalT-2) (Rattus norvegicus, UniProt O88419); test: Measurement of [14C]LacCer synthesis in primary astrocytes (HPTLC); assay type: cell-based; conditions: TNFα 1 ng/ml
T1 construct: using cell lysates derived from cells stimulated with LPS/IFNγ; endogenous in cells; host or cells: rat primary astrocytes
T1 sequence (O88419 1-382): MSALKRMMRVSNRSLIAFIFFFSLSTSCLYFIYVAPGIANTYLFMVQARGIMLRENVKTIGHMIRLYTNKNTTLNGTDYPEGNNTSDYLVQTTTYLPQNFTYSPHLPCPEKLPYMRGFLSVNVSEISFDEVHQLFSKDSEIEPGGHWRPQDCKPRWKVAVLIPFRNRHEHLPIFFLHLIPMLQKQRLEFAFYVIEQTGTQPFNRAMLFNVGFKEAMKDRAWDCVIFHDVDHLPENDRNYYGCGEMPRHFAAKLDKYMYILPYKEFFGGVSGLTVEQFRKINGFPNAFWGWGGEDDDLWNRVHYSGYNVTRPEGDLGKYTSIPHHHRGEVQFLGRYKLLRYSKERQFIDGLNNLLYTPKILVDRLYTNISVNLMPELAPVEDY
Method: Cultured cells were incubated in growth medium containing [^14C]galactose (5 μCi/ml) for 24 h as described previously. The medium was removed, and the cell monolayer was washed with sterile PBS. After the stimulation with LPS/IFNγ (1 μg/ml; 10 U/ml) for various durations, cells were then harvested and washed with ice cold PBS and lysed by sonication. 200 μg of protein was used for extraction of lipids using Chloroform:Methanol:HCl (100:100:1). The organic phase was dried under nitrogen. Glycosphingolipids were resolved by high performance thin layer chromatography using chloroform/methanol/0.25% KCl (70:30:4, v/v/v) as the developing solvent. The gel area corresponding to LacCer was scraped, and radioactivity was measured employing “liquiscint” (NEN Life Science Products) as a scintillating fluid.

[5] = tested on: GFAP; test: GFAP mRNA (real time PCR) and protein (immunoblot) in TNFα-stimulated primary astrocytes; assay type: cell-based, rat; conditions: TNFα 1 ng/ml; mRNA 8 h, protein 18 h
Method: (§1) For iNOS protein, the cells were washed with cold Tris buffered saline (TBS; 20 mM Trizma base, and 137 mM NaCl, pH 7.5), lysed in 1×SDS sample loading buffer (62.5 mM Trizma base, 2% w/v SDS, 10% glycerol), following sonication and centrifugation at 15,000×g for 5 min, the supernatant was used for the iNOS western immunoblot assay. The protein concentration of samples was determined with the detergent compatible protein assay reagent (Bio-Rad Laboratories, CA) using bovine serum albumin (BSA) as the standard. Sample was boiled for 3 min with 0.1 volumes of 10% β-mercaptoethanol and 0.5% bromophenol blue mix. Fifty μg of total cellular protein was resolved by electrophoresis on 8 or 12% polyacrylamide gels, electro-transferred to polyvinylidene difluoride (PVDF) filter and blocked with Tween 20 containing Tris-buffered saline (TBST; 10 mM Trizma base-pH 7.4, 1% Tween 20, and 150 mM NaCl) with 5% skim milk. After incubation with antiserum against iNOS (BD PharMingen, CA), rat GalT-2 (Abjent Inc., CA), H-Ras (Upstate Biotechnology, CA), GFAP (Santa Cruz Biotech, CA), or phospho-specific ERK1/2 (Cell signaling Tech Inc., MA), or pIκ-B (Signal Transduction), in PVDF buffer for 2 h at room temperature, the filters were washed 3 times with TBST buffer and then incubated with horseradish peroxidase conjugated anti-rabbit or mouse IgG for 1 h. The membranes were detected by autoradiography using ECL-plus (Amersham Pharmacia Biotech) after washing with TBST buffer.

[6] = tested on: rat primary astrocytes; test: BrdU incorporation assay, proliferation of primary astrocytes; assay type: cell-based; conditions: pretreated 0.5 h (AS: 48 h after transfection), TNFα 1 ng/ml 18 h, BrdU incorporation
Method: Primary astrocyte-enriched cultures were prepared from the whole cortex of one day old Sprague-Dawley rats as described earlier (Pahan et al., 1998b). Briefly, the cortex was rapidly dissected in ice-cold calcium/magnesium free Hanks Balanced Salt Solution (HBSS) (Gibco, Grand Island, N.Y.) at pH 7.4 as described previously (Won et al., 2001). The tissue was then minced, incubated in HBSS containing trypsin (2 mg/ml) for 20 min and washed twice in plating medium containing 10% FBS and 10 μg/ml gentamicin, and then disrupted by triturating through a Pasteur pipette following which cells were seeded in 75-cm^2 culture flasks (Falcon, Franklin, N.J.). After incubation at 37° C. in 5% CO2 for 1 day, the medium was completely changed to the culture medium (DMEM containing 5% FBS and 10 μg/ml gentamicin). The cultures received half exchanges with fresh medium twice a week. After 14-15 days the cells were shaken for at least 24 h on an orbital shaker to remove the microglia and then seeded on multi-well tissue culture dishes. The cells were incubated with serum-free DMEM for 24 h prior to the incubation with drugs.
Proliferation of primary astrocytes was assayed by using the Cell proliferation ELISA, BrdU colorimetric assay kit (Roche, Germany) according to manufacturer's protocol. Briefly, cells were seeded in 96 well plates in quadruplicate and following overnight serum starvation were stimulated with mitogenic stimulants. 2 h before termination of proliferation assay, BrdU (10 μM) was added to each well following which cells were fixed and levels of incorporated BrdU were assayed by using a conjugated anti-BrdU enzyme. Colorimetric analysis was done by measuring absorbance at 370 nm using a spectramax MAX 190 (Molecular devices) multi-well plate reading spectrophotometer.

[7] = tested on: small GTPase Ras; test: Quantification of Ras activation (GST-Raf-1 RBD pull-down) in primary astrocytes; assay type: cell-based, rat; conditions: pretreated 0.5 h, TNFα
Method: After stimulation, primary astrocytes in 6-well plates were washed with ice cold PBS and lysed in membrane lysis buffer (MLB; 0.5 ml of 25 mM HEPES, pH 7.5, 150 mM NaCl, 1% Igepal CA-630, 0.25% sodium deoxycholate, 10% glycerol, 10 mM MgCl2, 1 mM EDTA, 25 mM NaF, 1 mM of sodium orthovanadate, and EDTA free Complete™ protease inhibitor cocktail). After centrifugation (5,000×g) at 4° C. for 5 min, supernatant was used for Ras activation assay. One hundred μg of supernatant was used for binding with agarose conjugated Ras-binding domain (RBD) of Raf-1 which was expressed in BL21 (Invitrogen), Escherichia coli strain, transformed by pGEX-2T-GST-RBD in the presence of 0.1 mM of IPTG as described previously (Herrmann et al., 1995). The binding reaction was performed at 4° C. for 30 min in MLB. Following washing with MLB three times, Ras-RBD complex were denatured by adding of 2×SDS sample buffer. Ras protein was identified by western blot analysis with Ras antibodies from Upstate Biotechnology.

[8] = tested on: GalT-2; test: GalT-2 activity assay on cell lysates; assay type: cell-based, rat; conditions: LY pretreatment
Method: The activity of GalT-2 was measured using [^3H]UDP-galactose as the galactose donor and GlcCer as the acceptor as described previously (Yeh et al., 2001). Briefly, cells were harvested in PBS and cell pellets were suspended in Triton X-100 lysis buffer. Cell lysates were sonicated and following protein quantification, 100 μg of cell lysate was added to reaction mixture containing […] of cacodylate buffer (pH 6.8), 1 mM Mn/Mg, 0.2 mg/ml Triton X-100 (1:2 v/v), 30 nmol of GluCer and […] of UDP-[^3H]galactose in a total volume of 100 μl. The reaction was terminated by adding 10 μl of 0.25M EDTA, 10 μl of 0.5M KCl and 500 μl of Chloroform/Methanol (2:1 v/v) and the products were separated by centrifugation. The lower phase was collected and dried under nitrogen. Following resolution on HPTLC plates, the gel was cut out and radioactivity was measured in a scintillation counter. Assay without exogenous GluCer served as blank and their radioactivity counts were subtracted from all respective data points.

[9] = tested on: ERK1/2; test: ERK1/2 activation (phospho-ERK1/2 immunoblot) in primary astrocytes; assay type: cell-based, rat; conditions: pretreated 0.5 h, TNFα 20 min
Method: as §1

[10] = tested on: X-ALD patients; conditions: cited from earlier work

CCCCCCCCCC(=O)N[C@@H](CN1CCOCC1)[C@@H](O)c1ccccc1 [L-threo PDMP]
GSL biosynthesis [1]: stimulated | LD50 values, L-threo PDMP compared to D-threo PDMP [2]: higher | Neurite outgrowth [3]: stimulated

O=c1cc(N2CCOCC2)oc2c(-c3ccccc3)cccc12 [LY, 2-(4-Morpholinyl)-8-phenyl-4H-1-benzopyran-4-one]
[14C]LacCer synthesis upon TNFα-stimulation [4]: inhibited | TNFα-induced GFAP mRNA and protein expression [5]: inhibited | TNFα-induced astrocyte proliferation [6]: significantly attenuated | TNFα-induced Ras activation [7]: inhibited | TNFα-induced GalT-2 activation [8]: inhibition | TNFα-induced ERK1/2 phosphorylation [9]: inhibited

CCCCCCCC/C=C\CCCCCCCC(=O)OCC(COC(=O)CCCCCCC/C=C\CCCCCCCC)OC(=O)CCCCCCC/C=C\CCCCCCCC [trioleate]
Reduction of VLCFA [10]: 50%
